Patent publication US10556900B2, “TrkA kinase inhibitors, compositions and methods thereof” (Merck Sharp & Dohme Corp., priority 2015, dated 2020)

Target: human TrkA receptor (Homo sapiens (Human), UniProt P04629)
Experiment: TrkA functional activity, DiscoverX PathHunter assay (NGF-stimulated U2OS cells)
Format: cell-based
Details: U2OS cells expressing human TrkA-Prolink, Shc1-EA and p75NTR; compound 1 h, then NGF (~80% of maximal response) 3 h; luminescence
Protocol: TrkA functional activity was measured using a DiscoverX PathHunter assay. In this assay, U2OS cells express the human TrkA receptor as a fusion with the weakly complementing fragment of B-galactosidase, which DiscoverX calls “Prolink (PK)”; additionally, Shc1 is fused with a larger fragment, which is called “Enzyme Acceptor (EA)”. Activation of the TrkA receptor, upon NGF addition, results in the kinase domain being phosphorylated, resulting in subsequent recruitment of Shc1-EA protein. That recruitment results in an active B-galactosidase enzyme that is detected by addition of a chemiluminescent substrate. The human p75^NTR protein was also expressed as a co-receptor for NGF.
All reagents were purchased from DiscoverX, except for the receptor agonists (NGF, BDNF, NT3) which were purchased from Peprotech. Cells were expanded and frozen into cryovials, and stored in the vapor phase of liquid nitrogen, and thawed immediately before use. Thawed cells were added to a 384-well plate at 7500 cells/well, and allowed to incubate overnight. Compound at various concentrations was added the following morning and allowed to incubate on cells for 1 h. Then, NGF was added at a concentration sufficient to elicit ˜80% of a maximal response and allowed to incubate for 3 h at ambient temperature. DiscoverX PathHunter detection reagent was then added and the plate was further incubated for 1 h in the dark. The plate was then read via luminescence on the Perkin Elmer Envision.

Sequence of human TrkA receptor (P04629 33-796): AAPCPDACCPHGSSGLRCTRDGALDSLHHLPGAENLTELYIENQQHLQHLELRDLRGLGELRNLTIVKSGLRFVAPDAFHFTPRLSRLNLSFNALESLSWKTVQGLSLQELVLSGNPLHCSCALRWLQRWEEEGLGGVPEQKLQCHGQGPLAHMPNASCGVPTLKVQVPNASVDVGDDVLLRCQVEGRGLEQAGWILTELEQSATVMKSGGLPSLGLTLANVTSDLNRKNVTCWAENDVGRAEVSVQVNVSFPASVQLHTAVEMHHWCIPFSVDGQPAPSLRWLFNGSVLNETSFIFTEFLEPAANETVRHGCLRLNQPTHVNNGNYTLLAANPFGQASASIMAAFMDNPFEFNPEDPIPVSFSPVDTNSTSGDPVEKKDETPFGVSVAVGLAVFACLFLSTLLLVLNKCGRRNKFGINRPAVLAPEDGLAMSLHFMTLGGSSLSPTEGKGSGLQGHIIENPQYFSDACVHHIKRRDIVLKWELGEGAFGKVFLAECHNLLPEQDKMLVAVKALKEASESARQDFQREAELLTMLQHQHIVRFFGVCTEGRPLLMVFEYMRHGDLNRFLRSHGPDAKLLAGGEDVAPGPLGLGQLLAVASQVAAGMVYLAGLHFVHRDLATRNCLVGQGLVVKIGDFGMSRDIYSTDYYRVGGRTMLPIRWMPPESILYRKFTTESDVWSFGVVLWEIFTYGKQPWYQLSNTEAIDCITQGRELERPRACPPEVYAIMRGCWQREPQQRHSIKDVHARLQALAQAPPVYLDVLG

SMILES | IC50 [nM]
Cn1ccc(-c2cc(C(=O)Nc3cn4cncc4nc3-c3ccccc3)c(F)cc2C(F)(F)F)n1 [Compound 64, 2-Fluoro-5-(1-methyl-1H-pyrazol-3-yl)-N-(2-phenylimidazo[1,5-a]pyrimidin-3-yl)-4-(trifluoromethyl)benzamide] | 5.5
CC(C)(O)c1ncn2c(NC(=O)c3cc(-c4ncccn4)c(C(F)(F)F)cc3F)c(-c3ccccc3)ccc12 [Compound 59] | 25
CC(O)c1cnc2c(NC(=O)c3cc(-c4ncccn4)c(C(F)(F)F)cc3F)c(-c3ccccc3)ncn12 (racemic) [Compound 71, (R and S)-2-Fluoro-N-(3-(1-hydroxyethyl)-7-phenylimidazo[1,2-c]pyrimidin-8-yl)-5-(pyrimidin-2-yl)-4-(trifluoromethyl)benzamide] | 6.6
Cn1ccc(-c2cc(C(=O)Nc3c(-c4ccccc4)ccc4nc(C(C)(C)O)sc34)ccc2C(F)(F)F)n1 [Compound 3, N-(2-(2-Hydroxypropan-2-yl)-6-phenylbenzo[d]thiazol-7-yl)-3-(1-methyl-1H-pyrazol-3-yl)-4-(trifluoromethyl)benzamide] | 323
CC(O)c1nc2c(NC(=O)c3ccc(C(F)(F)F)c(-c4ccn(C)n4)c3)c(-c3ccccc3)ccc2s1 (single isomer, unassigned) [Compound 5, (R and S)—N-(2-(1-Hydroxyethyl)-5-phenylbenzo[d]thiazol-4-yl)-3-(1-methyl-1H-pyrazol-3-yl)-4-(trifluoromethyl)benzamide] | 13
O=C(Nc1c(-c2ccccc2)ncn2c(CO)cnc12)c1cc(-c2ncccn2)c(C(F)(F)F)cc1F [Compound 69, 2-Fluoro-N-(3-(hydroxymethyl)-7-phenylimidazo[1,2-c]pyrimidin-8-yl)-5-(pyrimidin-2-yl)-4-(trifluoromethyl)benzamide] | 6.5
O=C(Nc1c(-c2ccc(F)cc2)ccn2c(CO)cnc12)c1cc(-c2ncccn2)c(C(F)(F)F)cc1F [Compound 51, 2-Fluoro-N-(7-(4-fluorophenyl)-3-(hydroxymethyl)imidazo[1,2-a]pyridin-8-yl)-5-(pyrimidin-2-yl)-4-(trifluoromethyl)benzamide] | 60
Cn1ccc(-c2cc(C(=O)Nc3c(-c4ccccc4)ccn4cc(C(C)(C)O)nc34)ccc2C(F)(F)F)n1 [Compound 2, N-(2-(2-Hydroxypropan-2-yl)-7-phenylimidazo[1,2-a]pyridin-8-yl)-3-(1-methyl-1H-pyrazol-3-yl)-4-(trifluoromethyl)benzamide] | 139
CCOC(=O)c1cnc2c(NC(=O)c3cc(-c4ccn(C)n4)c(C(F)(F)F)s3)c(-c3ccccc3)ccn12 [Compound 66, Ethyl 8-(4-(1-methyl-1H-pyrazol-3-yl)-5-(trifluoromethyl)thiophene-2-carboxamido)-7-phenylimidazo[1,2-a]pyridine-3-carboxylate] | 204
Cn1ccc(-c2cc(C(=O)Nc3c(-c4ccccc4)ccn4c(CO)cnc34)sc2C(F)(F)F)n1 [Compound 68, N-(3-(Hydroxymethyl)-7-phenylimidazo[1,2-a]pyridin-8-yl)-4-(1-methyl-1H-pyrazol-3-yl)-5-(trifluoromethyl)thiophene-2-carboxamide] | 48
CC(C)(O)c1cnc2c(NC(=O)c3cc(-c4ncccn4)c(C(F)(F)F)cc3Cl)c(-c3ccccc3)ccn12 [Compound 20, 2-chloro-N-[3-(1-hydroxy-1-methylethyl)-7-phenylimidazo[1,2-a]pyridin-8-yl]-5-pyrimidin-2-yl-4-(trifluoromethyl)benzamide] | 16
NC(=O)Cc1cnc2c(NC(=O)c3cc(-c4ncccn4)c(C(F)(F)F)cc3F)c(-c3ccccc3)ccn12 [Compound 50, N-(3-(2-Amino-2-oxoethyl)-7-phenylimidazo[1,2-a]pyridin-8-yl)-2-fluoro-5-(pyrimidin-2-yl)-4-(trifluoromethyl)benzamide] | 28
O=C(Nc1c(-c2cccc(CO)c2)ccn2ccnc12)c1cc(-c2ncccn2)c(C(F)(F)F)cc1F [Compound 58, 2-Fluoro-N-(7-(3-(hydroxymethyl)phenyl)imidazo[1,2-a]pyridin-8-yl)-5-(pyrimidin-2-yl)-4-(trifluoromethyl)benzamide] | 232

These reach a lower IC50. Values come first.

IC50 [nM] | SMILES
5.1 | CC(O)c1cnc2c(NC(=O)c3ccc(C(F)(F)F)c(-c4ccn(C)n4)c3)c(-c3ccccc3)ccn12 (single isomer, unassigned) [Compound 14, (R) or (S)-N-[3-(1-hydroxyethyl)-7-phenylimidazo[1,2-a]pyridin-8-yl]-3-(1-methyl-1H-pyrazol-3-yl)-4-(trifluoromethyl)benzamide]
5.1 | CC(O)c1cnc2c(NC(=O)c3cc(-c4ncccn4)c(C(F)(F)F)cc3F)c(-c3ccccc3)ncn12 (single isomer, unassigned) [Compound 72, (R and S)-2-Fluoro-N-(3-(1-hydroxyethyl)-7-phenylimidazo[1,2-c]pyrimidin-8-yl)-5-(pyrimidin-2-yl)-4-(trifluoromethyl)benzamide]
4 | CC(C)(O)c1cnc2c(NC(=O)c3cc(-c4ncccn4)c(C(F)(F)F)cc3F)c(-c3ccccc3)ccn12 [Compound 11, 2-Fluoro-N-(3-(2-hydroxypropan-2-yl)-7-phenylimidazo[1,2-a]pyridin-8-yl)-5-(pyrimidin-2-yl)-4-(trifluoromethyl)benzamide]
3.7 | NC(=O)c1cnc2c(NC(=O)c3cc(-c4ccccn4)c(C(F)(F)F)cc3F)c(-c3ccccc3)ccn12 [Compound 21, 8-({[2-fluoro-5-pyridin-2-yl-4-(trifluoromethyl)phenyl]carbonyl}amino)-7-phenylimidazo[1,2-a]pyridine-3-carboxamide]
3.5 | CC(O)c1cnc2c(NC(=O)c3cc(-c4cc[nH]n4)c(C(F)(F)F)cc3F)c(-c3ccccc3)ccn12 (single isomer, unassigned) [Compound 27, (R) or (S)-2-fluoro-N-[3-(1-hydroxyethyl)-7-phenylimidazo[1,2-a]pyridin-8-yl]-5-(1H-pyrazol-3-yl)-4-(trifluoromethyl)benzamide]
3.3 | CC(O)c1cnc2c(NC(=O)c3cc(-c4ncccn4)c(C(F)(F)F)cc3F)c(-c3ccccc3)ccn12 (single isomer, unassigned) [Compound 9, (R) or (S)-2-Fluoro-N-(3-(1-hydroxyethyl)-7-phenylimidazo[1,2-a]pyridin-8-yl)-5-(pyrimidin-2-yl)-4-(trifluoromethyl)benzamide]
2.5 | O=C(Nc1c(-c2ccccc2)ccn2c(CO)cnc12)c1cc(-c2ccccn2)c(C(F)(F)F)cc1F [Compound 24, 2-fluoro-N-[3-(hydroxymethyl)-7-phenylimidazo[1,2-a]pyridin-8-yl]-5-pyridin-2-yl-4-(trifluoromethyl)benzamide]
2.1 | NC(=O)c1cnc2c(NC(=O)c3cc(-c4ncccn4)c(C(F)(F)F)cc3F)c(-c3ccccc3)ccn12 [Compound 7, 8-(2-Fluoro-5-(pyrimidin-2-yl)-4-(trifluoromethyl)benzamido)-7-phenylimidazo[1,2-a]pyridine-3-carboxamide]
1.9 | CC(C)(O)c1cnc2c(NC(=O)c3cc(-c4ccccn4)c(C(F)(F)F)cc3F)c(-c3ccccc3)ccn12 [Compound 19, 2-fluoro-N-[3-(1-hydroxy-1-methylethyl)-7-phenylimidazo[1,2-a]pyridin-8-yl]-5-pyridin-2-yl-4-(trifluoromethyl)benzamide]
1.4 | Cn1ccc(-c2cc(C(=O)Nc3c(-c4ccccc4)ccc4c(CO)cnn34)ccc2C(F)(F)F)n1 [Compound 40, N-[3-(hydroxymethyl)-6-phenylpyrazolo[1,5-a]pyridin-7-yl]-3-(1-methyl-1H-pyrazol-3-yl)-4-(trifluoromethyl)benzamide]
1.1 | Cn1ccc(-c2cc(C(=O)Nc3c(-c4ccccc4)ccn4c(C(C)(C)O)cnc34)c(Cl)cc2C(F)(F)F)n1 [Compound 17, 2-chloro-N-[3-(1-hydroxy-1-methylethyl)-7-phenylimidazo[1,2-a]pyridin-8-yl]-5-(1-methyl-1H-pyrazol-3-yl)-4-(trifluoromethyl)benzamide]
0.74 | CC(O)c1cnc2c(NC(=O)c3cc(-c4ccccn4)c(C(F)(F)F)cc3F)c(-c3ccccc3)ccn12 (single isomer, unassigned) [Compound 30, (R) or (S)-2-fluoro-N-[3-(1-hydroxyethyl)-7-phenylimidazo[1,2-a]pyridin-8-yl]-5-pyridin-2-yl-4-(trifluoromethyl)benzamide]
0.52 | Cn1ccc(-c2cc(C(=O)Nc3c(-c4ccccc4)ccn4c(CO)cnc34)c(F)cc2C(F)(F)F)n1 [Compound 23, 2-fluoro-N-[3-(hydroxymethyl)-7-phenylimidazo[1,2-a]pyridin-8-yl]-5-(1-methyl-1H-pyrazol-3-yl)-4-(trifluoromethyl)benzamide]
0.31 | CC(O)c1cnc2c(NC(=O)c3cc(-c4ccn(C)n4)c(C(F)(F)F)cc3F)c(-c3ccccc3)ccn12 (single isomer, unassigned) [Compound 26, (R) or (S)-2-fluoro-N-[3-(1-hydroxyethyl)-7-phenylimidazo[1,2-a]pyridin-8-yl]-5-(1-methyl-1H-pyrazol-3-yl)-4-(trifluoromethyl)benzamide]
